Test results from patent publication US10300042B2, “Apremilast for the treatment of a liver disease or a liver function abnormality” (Celgene Corporation, priority 2014, dated 2019).

Legend:
[1] = tested on: PDE1; test: PDE1 enzyme assay; assay type: biochemical; conditions: at 10 μM
Description: (§1) PDE1, 2, 3 and 5 enzyme assays were prepared as described by Hidaka and Asano. Biochem. Biophys. Acta., 1976, 429:485; see also Nicholsen et al., Trends Pharmaco. Sci., 1991, 12:19. The PDE6 enzyme assay was prepared according to Baehr et al., J. Biol. Chem., 1979, 254:11669 and Gillespie et al., Mol. Pharm., 1989, 36: 773. The PDE7 enzyme assay was prepared according to Bloom and Beavo. Proc. Natl. Acad. Sci. USA, 1996, 93:14188-92.

[2] = tested on: TNF-α; test: Inhibition of TNF-α production in PBMCs; assay type: cell-based; conditions: PBMC
From the text: The test methods were as described in WO 03/080049; Muller et al., J. Med. Chem., 1996, 39:3238; and Muller et al., Bioorg. Med. Chem. Lett., 1999, 9:1625-30.

[3] = tested on: patients with moderate to severe plaque psoriasis; test: Pruritus in ESTEEM 1; assay type: in vivo, human; conditions: Week 16, 30 mg BID
Description: Patients were randomized with Apremilast in an amount of 30 mg twice per day or placebo for the first 16 weeks, and from Weeks 16 to 32, all patients received Apremilast in an amount of 30 mg twice per day.

[4] = tested on: Alanine Aminotransferase; test: ALT levels in PALACE 1, 2, and 3 clinical studies; assay type: in vivo, human
From the text: Apremilast was studied in Phase 3 trials in both psoriatic arthritis and psoriasis patient populations and a Phase 2 trial in rheumatoid arthritis patients on background methotrexate. […] The improvement in mild baseline liver function test abnormalities has been observed with apremilast daily use without any prescribed changes in physical activity, social or dietary habits. The majority of the patient populations in both the psoriatic arthritis and psoriasis studies were overweight with the mean BMI for subjects greater than or equal to 30, more than half were consuming alcoholic beverages regularly, approximately 60% were taking methotrexate at an average dose of […], and 70% were using non-steroidal anti-inflammatory drugs (NSAIDs). […] During the course of the study, there was observed a higher proportion of subjects in the apremilast treatment groups (both 20 mg BID and 30 mg BID) with normal LFTs (i.e. normal levels of ALT and AST) at subsequent placebo-controlled study visits at week 4, week 16, and week 24 (See Tables 1 to 10 from PALACE 1, 2, and 3 studies).

[5] = tested on: PDE6; test: PDE6 enzyme assay; assay type: biochemical; conditions: at 10 μM
Description: as §1

[6] = tested on: Alanine Aminotransferase; test: ALT levels in PSA-005 (psoriatic arthritis); assay type: in vivo, human; conditions: for ALT High to Normal, percent of patients / ALT Net Benefit / ALT Normal to High, percent of patients: end of treatment (week 24)
From the text: Apremilast was studied in a Phase 3 trial in patients with active psoriatic arthritis who have not been previously treated with disease-modifying antirheumatic drugs. […] The improvement in mild baseline liver function test abnormalities has been observed with apremilast daily use without any prescribed changes in physical activity, social or dietary habits. […] See Tables 25 to 34 from PSA-005 studies.

[7] = Baseline High, Week 24, 20 mg BID
[8] = Baseline High, Week 24, 30 mg BID
[9] = Baseline Normal, Week 24, 20 mg BID
[10] = Baseline Normal, Week 24, 30 mg BID
[11] = Baseline Total, Week 24, 20 mg BID
[12] = Baseline Total, Week 24, 30 mg BID

## CCOc1cc([C@@H](CS(C)(=O)=O)N2C(=O)c3cccc(NC(C)=O)c3C2=O)ccc1OC [Apremilast, (+)-2-[1-(3-ethoxy-4-methoxyphenyl)-2-methylsulfonylethyl]-4-acetylaminoisoindoline-1,3-dione]
[1]
  % inhibition PDE1: 23%
[2]
  IC50: 77 nM
[3]
  Change in Pruritus Visual Analog Scale (mm ± SD): −31.5 (±32.43) mm
[4]; 20 BID, end of treatment
  ALT High to Normal, percent of patients: 55.3%
  ALT Net Benefit: 40.6%
  ALT Normal to High, percent of patients: 4.5%
[4]; 30 BID, end of treatment
  ALT High to Normal, Difference between Placebo and APR 30 BID: 44.4%
  ALT High to Normal, percent of patients: 74.4%
  ALT Net Benefit: 51.8%
  ALT Net Benefit, Difference between Placebo and APR 30 BID: 36.8%
  ALT Normal to High, Difference between Placebo and APR 30 BID: −2.8%
  ALT Normal to High, percent of patients: 4.4%
[4]; [7]
  ALT High, % of patients: 44.7%
  ALT Low, % of patients: 0.0%
  ALT Normal, % of patients: 55.3%
[4]; [8]
  ALT High, % of patients: 25.6%
  ALT Low, % of patients: 0.0%
  ALT Normal, % of patients: 74.4%
[4]; [9]
  ALT High, % of patients: 4.5%
  ALT Low, % of patients: 0.0%
  ALT Normal, % of patients: 95.5%
[4]; [10]
  ALT High, % of patients: 4.4%
  ALT Low, % of patients: 0.0%
  ALT Normal, % of patients: 95.6%
[4]; [11]
  ALT High, % of patients: 8.9%
  ALT Low, % of patients: 0.0%
  ALT Normal, % of patients: 91.1%
[4]; [12]
  ALT High, % of patients: 6.3%
  ALT Low, % of patients: 0.0%
  ALT Normal, % of patients: 93.7%
[4]; Week 4, 20 mg BID
  Baseline High ALT: High %: 54.2%
  Baseline High ALT: Normal %: 45.8%
  Baseline High ALT: Normal % difference from Placebo: 8.7%
[4]; Week 4, 30 mg BID
  Baseline High ALT: High %: 41.1%
  Baseline High ALT: Normal %: 58.9%
  Baseline High ALT: Normal % difference from Placebo: 21.8%
[4]; Week 16, 20 mg BID
  Baseline High ALT: High %: 36.8%
  Baseline High ALT: Normal %: 63.2%
  Baseline High ALT: Normal % difference from Placebo: 12.4%
[4]; Week 16, 30 mg BID
  Baseline High ALT: High %: 32.7%
  Baseline High ALT: Normal %: 67.3%
  Baseline High ALT: Normal % difference from Placebo: 16.5%
[4]; Week 24, 20 mg BID
  Baseline High ALT: High %: 45.1%
  Baseline High ALT: Normal %: 54.9%
  Baseline High ALT: Normal % difference from Placebo: 14.9%
[4]; Week 24, 30 mg BID
  Baseline High ALT: High %: 23.8%
  Baseline High ALT: Normal %: 76.2%
  Baseline High ALT: Normal % difference from Placebo: 36.2%
[5]
  % inhibition PDE6: −6%
[6]; 20 BID
  ALT High to Normal, percent of patients: 87.5%
  ALT Net Benefit: 53.8%
  ALT Normal to High, percent of patients: 3.3%
[6]; 30 BID
  ALT High to Normal, percent of patients: 72.7%
  ALT Net Benefit: 44.4%
  ALT Normal to High, percent of patients: 4.9%
[6]; 30 BID, week 24
  ALT High to Normal, Difference between Placebo and APR 30 BID: 22.7%
  ALT Net Benefit, Difference between Placebo and APR 30 BID: 24.4%
  ALT Normal to High, Difference between Placebo and APR 30 BID: −1.0%
[6]; 30 BID, week 24, listed as APR
  ALT High to Normal, Difference between Placebo and APR 30 BID: 22.7%
[6]; [7]
  ALT High, % of patients: 12.5%
  ALT Low, % of patients: 0.0%
  ALT Normal, % of patients: 87.5%
[6]; [8]
  ALT High, % of patients: 27.3%
  ALT Low, % of patients: 0.0%
  ALT Normal, % of patients: 72.7%
[6]; [9]
  ALT High, % of patients: 3.3%
  ALT Low, % of patients: 0.0%
  ALT Normal, % of patients: 96.7%
[6]; [10]
  ALT High, % of patients: 4.9%
  ALT Low, % of patients: 0.0%
  ALT Normal, % of patients: 95.1%
[6]; [11]
  ALT High, % of patients: 3.8%
  ALT Low, % of patients: 0.0%
  ALT Normal, % of patients: 96.2%
[6]; [12]
  ALT High, % of patients: 6.5%
  ALT Low, % of patients: 0.0%
  ALT Normal, % of patients: 93.5%
[6]; Week 4, 20 mg BID
  Baseline High ALT: High %: 30.0%
  Baseline High ALT: Normal %: 70.0%
[6]; Week 4, 30 mg BID
  Baseline High ALT: High %: 72.7%
  Baseline High ALT: Normal %: 27.3%
[6]; Week 16, 20 mg BID
  Baseline High ALT: High %: 12.5%
  Baseline High ALT: Normal %: 87.5%
[6]; Week 16, 30 mg BID
  Baseline High ALT: High %: 36.4%
  Baseline High ALT: Normal %: 63.6%
[6]; Week 24, 20 mg BID
  Baseline High ALT: High %: 12.5%
  Baseline High ALT: Normal %: 87.5%
[6]; Week 24, 30 mg BID
  Baseline High ALT: High %: 27.3%
  Baseline High ALT: Normal %: 72.7%
